Literature values in patent publication US4743707A, “Process for purifying allyl alcohol” (priority 1986, dated 1988).

Conditions: 20° C.; Ullmanns Encyklopadie

## O=P([O-])([O-])OP(=O)([O-])OP(=O)([O-])[O-].[K+].[K+].[K+].[K+].[K+] [Potassium tripolyphosphate, potassium tripolyphosphate]
  water solubility: about 67%
